From ChEMBL document CHEMBL1201862, “PubChem BioAssay data set” (2004)
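A five-concentration, 48-hour dose response in 96-well plates underlies each endpoint, interpolated linearly between surrounding concentrations. GI50: concentration for 50% inhibition of growth.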 Calls of active or inactive are those of the source. Rule as the data show it: active = GI50 up to about 1.1 µM and inactive = higher.

Legend:
Test in all cases: DTP human tumour cell line panel, 48 h
TK-10 = tested on: TK-10
SK-MEL-2 = tested on: SK-MEL-2
NCI-H23 = tested on: NCI-H23
OVCAR-4 = tested on: OVCAR-4
UO-31 = tested on: UO-31
NCI-H226 = tested on: NCI-H226
HOP-92 = tested on: HOP-92
SK-MEL-5 = tested on: SK-MEL-5
SF-539 = tested on: SF-539
UACC-257 = tested on: UACC-257
ACHN = tested on: ACHN
SK-MEL-28 = tested on: SK-MEL-28
OVCAR-5 = tested on: OVCAR-5
SW-620 = tested on: SW-620
SF-268 = tested on: SF-268
HOP-62 = tested on: HOP-62
HCC 2998 = tested on: HCC 2998

Measured: GI50

O=[N+]([O-])c1ccc(C2N3CCCCC3[C@H]3CCCCN23)cc1 (some centres not stated)
inactive: TK-10 > 100 µM | SK-MEL-2 > 100 µM | NCI-H23 > 100 µM | OVCAR-4 > 100 µM | UO-31 > 100 µM | NCI-H226 > 100 µM | HOP-92 > 100 µM | SK-MEL-5 > 100 µM | SF-539 > 100 µM | UACC-257 > 100 µM | ACHN > 100 µM | SK-MEL-28 > 100 µM | OVCAR-5 > 100 µM | SW-620 > 100 µM | SF-268 > 100 µM | HOP-62 > 100 µM

CCOc1ccccc1NC(=O)CC1C(=O)Nc2ccccc2[S+]1[O-] (configuration not stated)
inactive: TK-10 > 100 µM | SK-MEL-2 > 100 µM | NCI-H23 > 100 µM | OVCAR-4 32.4 µM | UO-31 85.3 µM | NCI-H226 60.5 µM | HOP-92 43.1 µM | SK-MEL-5 54.8 µM | SF-539 > 100 µM | UACC-257 > 100 µM | ACHN 66.2 µM | SK-MEL-28 > 100 µM | OVCAR-5 > 100 µM | SW-620 > 100 µM | HCC 2998 > 100 µM | SF-268 > 100 µM

COC(=O)C(=O)C(/C(=N/N)C(=O)Nc1ccccc1C(N)=O)c1nc2ccc([N+](=O)[O-])cc2nc1O (configuration not stated)
inactive: TK-10 > 100 µM | SK-MEL-2 > 100 µM | NCI-H23 > 100 µM | OVCAR-4 > 100 µM | UO-31 58.2 µM | NCI-H226 29.3 µM | SK-MEL-5 > 100 µM | SF-539 > 100 µM | UACC-257 > 100 µM | ACHN > 100 µM | SK-MEL-28 > 100 µM | OVCAR-5 > 100 µM | SW-620 > 100 µM | HCC 2998 > 100 µM | SF-268 > 100 µM | HOP-62 > 100 µM

O=Cn1c2ccccc2c2ccccc21
inactive: TK-10 > 100 µM | SK-MEL-2 > 100 µM | NCI-H23 > 100 µM | UO-31 > 100 µM | HOP-92 > 100 µM | SK-MEL-5 > 100 µM | SF-539 > 100 µM | UACC-257 > 100 µM | ACHN > 100 µM | SK-MEL-28 > 100 µM | OVCAR-5 > 100 µM | SW-620 > 100 µM | HCC 2998 > 100 µM | SF-268 > 100 µM | HOP-62 > 100 µM

CCCCNC1CCCCC[C@H]1O (some centres not stated)
inactive: TK-10 > 100 µM | SK-MEL-2 > 100 µM | NCI-H23 > 100 µM | OVCAR-4 > 100 µM | UO-31 > 100 µM | NCI-H226 > 100 µM | HOP-92 > 100 µM | SK-MEL-5 > 100 µM | SF-539 > 100 µM | UACC-257 > 100 µM | ACHN > 100 µM | SK-MEL-28 > 100 µM | OVCAR-5 > 100 µM | SW-620 > 100 µM | HCC 2998 > 100 µM | SF-268 > 100 µM | HOP-62 > 100 µM

Nc1nc2c(ncn2CCOC(c2ccccc2)P(=O)(O)O)c(=O)[nH]1 (configuration not stated)
inactive: TK-10 > 100 µM | SK-MEL-2 > 100 µM | NCI-H23 > 100 µM | UO-31 > 100 µM | NCI-H226 > 100 µM | SK-MEL-5 > 100 µM | SF-539 > 100 µM | UACC-257 > 100 µM | ACHN > 100 µM | SK-MEL-28 > 100 µM | OVCAR-5 > 100 µM | SW-620 > 100 µM | HCC 2998 > 100 µM | SF-268 > 100 µM

CCCCCCCCCCCC[N+]12CC[N+](C)(CC1)CC2
inactive: TK-10 1.89 µM | SK-MEL-2 77.8 µM | NCI-H23 20.9 µM | OVCAR-4 44.8 µM | UO-31 > 100 µM | NCI-H226 18.3 µM | HOP-92 14.9 µM | SK-MEL-5 > 100 µM | SF-539 39.4 µM | UACC-257 > 100 µM | ACHN 55.1 µM | SK-MEL-28 > 100 µM | OVCAR-5 17.1 µM | SW-620 44.3 µM | HCC 2998 8.09 µM | SF-268 18.7 µM | HOP-62 29.2 µM

CC(=O)c1c(C)[n+]([O-])c2cc(C)c(C)cc2[n+]1[O-]
inactive: TK-10 > 100 µM | SK-MEL-2 > 100 µM | NCI-H23 > 100 µM | OVCAR-4 > 100 µM | UO-31 > 100 µM | NCI-H226 > 100 µM | SK-MEL-5 > 100 µM | SF-539 > 100 µM | UACC-257 > 100 µM | ACHN > 100 µM | SK-MEL-28 > 100 µM | OVCAR-5 > 100 µM | SW-620 > 100 µM | HCC 2998 > 100 µM | SF-268 > 100 µM | HOP-62 > 100 µM

CC(C)NC(=O)OCc1nnn2c1C(OC(=O)NC(C)C)CC2 (configuration not stated)
inactive: TK-10 > 100 µM | SK-MEL-2 > 100 µM | NCI-H23 > 100 µM | OVCAR-4 > 100 µM | UO-31 > 100 µM | NCI-H226 > 100 µM | HOP-92 > 100 µM | SK-MEL-5 > 100 µM | SF-539 > 100 µM | UACC-257 > 100 µM | SK-MEL-28 > 100 µM | OVCAR-5 > 100 µM | SW-620 > 100 µM | HCC 2998 > 100 µM

O=C1OC2(OC2c2ccccc2)c2ccccc21 (configuration not stated)
inactive: TK-10 > 100 µM | SK-MEL-2 > 100 µM | NCI-H23 > 100 µM | UO-31 > 100 µM | NCI-H226 > 100 µM | HOP-92 > 100 µM | SK-MEL-5 > 100 µM | SF-539 > 100 µM | UACC-257 > 100 µM | ACHN > 100 µM | SK-MEL-28 > 100 µM | OVCAR-5 > 100 µM | SW-620 > 100 µM | HCC 2998 > 100 µM | SF-268 > 100 µM | HOP-62 > 100 µM

COc1ccc(C2C(Cl)C(=O)N2n2cnc3ccccc3c2=O)cc1 (configuration not stated)
inactive: TK-10 98.6 µM | SK-MEL-2 > 100 µM | NCI-H23 94 µM | OVCAR-4 33.3 µM | UO-31 71 µM | NCI-H226 > 100 µM | SK-MEL-5 87.1 µM | UACC-257 > 100 µM | ACHN 40.5 µM | SK-MEL-28 > 100 µM | OVCAR-5 > 100 µM | SW-620 > 100 µM | HCC 2998 > 100 µM | SF-268 87.9 µM | HOP-62 > 100 µM

S=c1[nH]c(=S)c2nnn(-c3ccccc3)c2[nH]1
inactive: TK-10 > 100 µM | SK-MEL-2 > 100 µM | NCI-H23 > 100 µM | UO-31 > 100 µM | NCI-H226 > 100 µM | HOP-92 > 100 µM | SK-MEL-5 > 100 µM | SF-539 > 100 µM | UACC-257 > 100 µM | ACHN > 100 µM | SK-MEL-28 > 100 µM | OVCAR-5 > 100 µM | SW-620 > 100 µM | HCC 2998 > 100 µM | SF-268 > 100 µM | HOP-62 > 100 µM

COc1ccc(OC)c(CCc2cc(OC)c(OC)cc2C)c1
inactive: TK-10 89.7 µM | SK-MEL-2 6.68 µM | NCI-H23 32.1 µM | OVCAR-4 8.2 µM | UO-31 30.1 µM | SK-MEL-5 1.62 µM | UACC-257 26.7 µM | ACHN > 100 µM | SK-MEL-28 9.38 µM | OVCAR-5 > 100 µM | SW-620 5.6 µM | HCC 2998 27.5 µM | SF-268 42 µM | HOP-62 49.1 µM

COc1ccccc1C1C(C(=O)Nc2ccccc2)=C(C)NC(C)=C1C(=O)Nc1ccccc1
inactive: TK-10 89.5 µM | SK-MEL-2 32 µM | NCI-H23 > 100 µM | OVCAR-4 54.8 µM | UO-31 56.5 µM | NCI-H226 53 µM | HOP-92 44.2 µM | SK-MEL-5 31.8 µM | SF-539 36.1 µM | UACC-257 75.9 µM | ACHN 39.5 µM | SK-MEL-28 > 100 µM | OVCAR-5 91 µM | SW-620 93.8 µM | HCC 2998 > 100 µM | SF-268 > 100 µM | HOP-62 83.8 µM

O=C(NCc1ccccc1)c1cc2ccc(O)c(O)c2cn1
inactive: TK-10 > 100 µM | SK-MEL-2 12.4 µM | NCI-H23 12.1 µM | OVCAR-4 16.6 µM | UO-31 18.1 µM | NCI-H226 40 µM | HOP-92 19.1 µM | SK-MEL-5 11.1 µM | SF-539 18.2 µM | UACC-257 15.6 µM | ACHN 15.5 µM | SK-MEL-28 16.4 µM | OVCAR-5 26 µM | SW-620 21.4 µM | HCC 2998 > 100 µM | SF-268 15.1 µM | HOP-62 21.3 µM

O=C1OCc2nc3c(c(-c4ccccc4C(F)(F)F)c21)C(=O)OC3
inactive: TK-10 > 100 µM | SK-MEL-2 > 100 µM | NCI-H23 > 100 µM | UO-31 > 100 µM | HOP-92 > 100 µM | SK-MEL-5 > 100 µM | SF-539 > 100 µM | UACC-257 > 100 µM | ACHN > 100 µM | SK-MEL-28 > 100 µM | OVCAR-5 > 100 µM | SW-620 > 100 µM | HCC 2998 > 100 µM | SF-268 > 100 µM | HOP-62 > 100 µM

COc1ccc(C2=Nc3ccccc3SC(C)C2)cc1 (configuration not stated)
inactive: TK-10 > 100 µM | SK-MEL-2 > 100 µM | NCI-H23 > 100 µM | OVCAR-4 > 100 µM | UO-31 > 100 µM | NCI-H226 > 100 µM | HOP-92 > 100 µM | SF-539 > 100 µM | UACC-257 > 100 µM | ACHN > 100 µM | SK-MEL-28 > 100 µM | OVCAR-5 > 100 µM | SW-620 > 100 µM | HCC 2998 > 100 µM | SF-268 > 100 µM | HOP-62 > 100 µM
